Data on one molecule can be found in patent publication US10195185B2, “3-(1H-imidazo[4,5-C]pyridin-2-yl)-1H-pyrazolo[4,3-B]pyridines and therapeutic uses thereof” (Samumed, LLC, priority 2015, dated 2019).

Structures are written as SMILES.

What is called EC50 is the concentration needed to bring the measured effect to its halfway point. Lower therefore signals an effect from little substance. In general, inhibition refers to the share of the control response that was lost under treatment.

Holding throughout (format): cell-based
Test [1] concerns Wnt activity (Wnt-responsive human Sp5 promoter, TCF/LEF binding sites) in SW480 colon carcinoma cells. Description: Wnt activity screening assay: Sp5-Luc luciferase reporter gene in SW480 cells. In a few lines:
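Wnt-driven firefly luciferase in SW480 colon carcinoma cells reports pathway activity after overnight compound exposure (10 μM top concentration, 3-fold steps). Signal is normalized to DMSO controls.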

A further test has as its system SW480 colon cancer cells. Description: Cell viability assay (CellTiter-Blue), four days. To be noted: Homo sapiens, 96 h. In a few lines: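 Resazurin reduction (Ex 560/Em 590 nm, ~3 h reagent incubation) served as the viability read-out after SW480 cells were treated for four days at 37 °C. Doses ran from 10 μM down to 0.0045 μM in eight 1:3 steps. Curves fitted non-linearly for EC50, else % inhibition at 10 μM reported.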
On the technique in general: Resazurin is reduced to fluorescent resorufin, in cell work by metabolically active cells.

For test [2], the system named is IL-6 in human monocyte cell line (THP-1 cells). In words: IL-6 inhibition in LPS-stimulated THP-1 cells (HTRF). To be noted: IL-6 in LPS-stimulated THP-1 cells. The method, boiled down: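 Readout is the 665/620 nm HTRF ratio for secreted IL-6, normalized to DMSO wells, with EC50 from a variable-slope four-parameter fit, or % inhibition at 10 μM when above 10 μM. Cells (1% FBS, 24 h beforehand) got compound for 2 h, then LPS 500 ng/mL for 22 h at 37° C; top dose 10 μM, 0.1% DMSO.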
In general terms: Time-resolved FRET reads energy transfer from a long-lived donor to a nearby acceptor.

Turning to `Cc1cn(-c2nccc3[nH]c(-c4n[nH]c5ccc(-c6cncc(OCCN(C)C)c6)nc45)nc23)cn1` [Compound 627, N,N-Dimethyl-2-((5-(3-(4-(4-methyl-1H-imidazol-1-yl)-1H-imidazo[4,5-c]pyridin-2-yl)-1H-pyrazolo[4,3-b]pyridin-5-yl)pyridin-3-yl)oxy)ethan-1-amine], the EC50 is greater than 10 µM in test [1] (10-point dose-response from 10 μM, incubated overnight); greater than 10 µM with SW480 colon cancer cells (CellTiter-Blue cell viability); greater than 10 µM in test [2] (HTRF). For the same molecule, the inhibition at 10 µM in test [1] (given for EC50 of >10 μM, 10 μM, read-out: percent inhibition at 10 μM) worked out at 11.8%; in the test with SW480 colon cancer cells (10 μM, read-out: percent inhibition at 10 μM (given for EC50 of >10 μM)), 8.2%; in test [2] (read-out: percent inhibition in brackets beside EC50 >10 μM) it was 17.6%.
